Test results reported in the supplement of paper PMC11208160.

assay: recombinant barcode read abundance after kanamycin selection (control-corrected) (log10(CPM+1)); higher = more efficient recombination; sequences stand for … in AGTGCAGAGAAAATCGGCCAGTTTTCTCTGCCTGCAGTCCGCATGCCGT…ATTTATGCAGCGGACTGCCTTTCTCCCAAAGTGATAAACCGGACAGTATCATGGACCGGTTTTCCCGGTAATCCGTATTTGCAAGGTTGGTTTCACT; site = the 11-nt target
In short: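 A vector carrying a T7-inducible recombinase and the last 73 bp of the bridge RNA received, by Gibson cloning, oligos encoding a promoter, target, barcode and the first 104 bridge RNA bases under J23119. The pooled constructs entered E. coli together with a donor plasmid by electroporation. Selection used chloramphenicol/ampicillin/kanamycin with 0.1 mM IPTG, with chloramphenicol/ampicillin LB agar as the control, each in two replicates. Recombination efficiency is the averaged, control-corrected counts-per-million of barcodes at recombinant junctions, reported as log10(CPM+1).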

Sequence | recombinant barcode read abundance (log10)
GAGTCCTCTTGGGTTCTAACCTGTTGCCTGG [GAGTCCTCTAG_LTGcore_CT_RTGcore_CC] (site GAGTCCTCTAG) (LTG core: CT, RTG core: CC) | 1.39
GAGTCCTCTTGGGTTCTAACCTGTTGCCTTG [GAGTCCTCTAG_LTGcore_CT_RTGcore_CA] (site GAGTCCTCTAG) (LTG core: CT, RTG core: CA) | 0.753
GAGTCCTGATGGGTTCTAACCTGTTGCCTAG [GAGTCCTCTAG_LTGcore_GA_RTGcore_CT] (site GAGTCCTCTAG) (LTG core: GA, RTG core: CT) | 0.62
GAGTCCTGATGGGTTCTAACCTGTTGCCTTC [GAGTCCTCTAG_LTGcore_GA_RTGcore_GA] (site GAGTCCTCTAG) (LTG core: GA, RTG core: GA) | 0.149
GAGTCCTGGTGGGTTCTAACCTGTTGCCTCC [GAGTCCTCTAG_LTGcore_GG_RTGcore_GG] (site GAGTCCTCTAG) (LTG core: GG, RTG core: GG) | 0.0289
GAGTCCTTTTGGGTTCTAACCTGTTGCCTAA [GAGTCCTCTAG_LTGcore_TT_RTGcore_TT] (site GAGTCCTCTAG) (LTG core: TT, RTG core: TT) | 0.219
GAGTCCTTTTGGGTTCTAACCTGTTGCCTAG [GAGTCCTCTAG_LTGcore_TT_RTGcore_CT] (site GAGTCCTCTAG) (LTG core: TT, RTG core: CT) | 0.153
GCGCGACAGTGGGTTCTAACCTGTTGCTTAG [GCGCGACCTAA_LTGcore_AG_RTGcore_CT] (site GCGCGACCTAA) (LTG core: AG, RTG core: CT) | 0.642
GCGCGACCTTGGGTTCTAACCTGTTGCTTAC [GCGCGACCTAA_LTGcore_CT_RTGcore_GT] (site GCGCGACCTAA) (LTG core: CT, RTG core: GT) | 0.23
GCGCGACCTTGGGTTCTAACCTGTTGCTTCC [GCGCGACCTAA_LTGcore_CT_RTGcore_GG] (site GCGCGACCTAA) (LTG core: CT, RTG core: GG) | 0.0108
GCGCGACCTTGGGTTCTAACCTGTTGCTTCT [GCGCGACCTAA_LTGcore_CT_RTGcore_AG] (site GCGCGACCTAA) (LTG core: CT, RTG core: AG) | 0.345
GCGCGACCTTGGGTTCTAACCTGTTGCTTGA [GCGCGACCTAA_LTGcore_CT_RTGcore_TC] (site GCGCGACCTAA) (LTG core: CT, RTG core: TC) | 0.0329
GCGCGACGCTGGGTTCTAACCTGTTGCTTGC [GCGCGACCTAA_LTGcore_GC_RTGcore_GC] (site GCGCGACCTAA) (LTG core: GC, RTG core: GC) | 0.0645
GCGCGACGTTGGGTTCTAACCTGTTGCTTAC [GCGCGACCTAA_LTGcore_GT_RTGcore_GT] (site GCGCGACCTAA) (LTG core: GT, RTG core: GT) | 0.0144
GCGCGACTATGGGTTCTAACCTGTTGCTTAG [GCGCGACCTAA_LTGcore_TA_RTGcore_CT] (site GCGCGACCTAA) (LTG core: TA, RTG core: CT) | 0.038
GCGGGACACTGGGTTCTAACCTGTTGCCTGT [GCGGGACCTAG_LTGcore_AC_RTGcore_AC] (site GCGGGACCTAG) (LTG core: AC, RTG core: AC) | 0
GCGGGACAGTGGGTTCTAACCTGTTGCCTCT [GCGGGACCTAG_LTGcore_AG_RTGcore_AG] (site GCGGGACCTAG) (LTG core: AG, RTG core: AG) | 0
GCGGGACCCTGGGTTCTAACCTGTTGCCTGG [GCGGGACCTAG_LTGcore_CC_RTGcore_CC] (site GCGGGACCTAG) (LTG core: CC, RTG core: CC) | 1.52
GCGGGACGCTGGGTTCTAACCTGTTGCCTGC [GCGGGACCTAG_LTGcore_GC_RTGcore_GC] (site GCGGGACCTAG) (LTG core: GC, RTG core: GC) | 0.0844
GCGGGACGGTGGGTTCTAACCTGTTGCCTCC [GCGGGACCTAG_LTGcore_GG_RTGcore_GG] (site GCGGGACCTAG) (LTG core: GG, RTG core: GG) | 0.182
GGACACCAGTGGGTTCTAACCTGTTGCCTAG [GGACACCCTAG_LTGcore_AG_RTGcore_CT] (site GGACACCCTAG) (LTG core: AG, RTG core: CT) | 0.143
GGACACCAGTGGGTTCTAACCTGTTGCCTCT [GGACACCCTAG_LTGcore_AG_RTGcore_AG] (site GGACACCCTAG) (LTG core: AG, RTG core: AG) | 0.0138
GGACACCCGTGGGTTCTAACCTGTTGCCTAG [GGACACCCTAG_LTGcore_CG_RTGcore_CT] (site GGACACCCTAG) (LTG core: CG, RTG core: CT) | 1.2

Sequence | recombinant barcode read abundance (log10)
GGACACCCTTGGGTTCTAACCTGTTGCCTAC [GGACACCCTAG_LTGcore_CT_RTGcore_GT] (site GGACACCCTAG) (LTG core: CT, RTG core: GT) | 1.33
GGACACCCTTGGGTTCTAACCTGTTGCCTAG [GGACACCCTAG_LTGcore_CT_RTGcore_CT] (site GGACACCCTAG) (LTG core: CT, RTG core: CT) | 2.43
GGACACCCTTGGGTTCTAACCTGTTGCCTTC [GGACACCCTAG_LTGcore_CT_RTGcore_GA] (site GGACACCCTAG) (LTG core: CT, RTG core: GA) | 0.732
GGACACCCTTGGGTTCTAACCTGTTGCCTTG [GGACACCCTAG_LTGcore_CT_RTGcore_CA] (site GGACACCCTAG) (LTG core: CT, RTG core: CA) | 1.32
GGACACCTCTGGGTTCTAACCTGTTGCCTAG [GGACACCCTAG_LTGcore_TC_RTGcore_CT] (site GGACACCCTAG) (LTG core: TC, RTG core: CT) | 0.117
GGCTCCCATTGGGTTCTAACCTGTTGCGGAT [GGCTCCCCTCC_LTGcore_AT_RTGcore_AT] (site GGCTCCCCTCC) (LTG core: AT, RTG core: AT) | 0.138
GGCTCCCCCTGGGTTCTAACCTGTTGCGGGG [GGCTCCCCTCC_LTGcore_CC_RTGcore_CC] (site GGCTCCCCTCC) (LTG core: CC, RTG core: CC) | 0.0622
GGCTCCCCGTGGGTTCTAACCTGTTGCGGAG [GGCTCCCCTCC_LTGcore_CG_RTGcore_CT] (site GGCTCCCCTCC) (LTG core: CG, RTG core: CT) | 0.116
GGCTCCCCGTGGGTTCTAACCTGTTGCGGCG [GGCTCCCCTCC_LTGcore_CG_RTGcore_CG] (site GGCTCCCCTCC) (LTG core: CG, RTG core: CG) | 0.0989
GGCTCCCCTTGGGTTCTAACCTGTTGCGGAG [GGCTCCCCTCC_LTGcore_CT_RTGcore_CT] (site GGCTCCCCTCC) (LTG core: CT, RTG core: CT) | 0.248
GGCTCCCCTTGGGTTCTAACCTGTTGCGGCG [GGCTCCCCTCC_LTGcore_CT_RTGcore_CG] (site GGCTCCCCTCC) (LTG core: CT, RTG core: CG) | 0.0875
GGCTCCCCTTGGGTTCTAACCTGTTGCGGGG [GGCTCCCCTCC_LTGcore_CT_RTGcore_CC] (site GGCTCCCCTCC) (LTG core: CT, RTG core: CC) | 0.0955
GGCTCCCCTTGGGTTCTAACCTGTTGCGGTT [GGCTCCCCTCC_LTGcore_CT_RTGcore_AA] (site GGCTCCCCTCC) (LTG core: CT, RTG core: AA) | 0.285
GGCTCCCGCTGGGTTCTAACCTGTTGCGGGC [GGCTCCCCTCC_LTGcore_GC_RTGcore_GC] (site GGCTCCCCTCC) (LTG core: GC, RTG core: GC) | 0.0637
GGCTCCCGTTGGGTTCTAACCTGTTGCGGAG [GGCTCCCCTCC_LTGcore_GT_RTGcore_CT] (site GGCTCCCCTCC) (LTG core: GT, RTG core: CT) | 0.546
GGCTCCCTGTGGGTTCTAACCTGTTGCGGCA [GGCTCCCCTCC_LTGcore_TG_RTGcore_TG] (site GGCTCCCCTCC) (LTG core: TG, RTG core: TG) | 0.234
GGGAGCCAATGGGTTCTAACCTGTTGCTGTT [GGGAGCCCTCA_LTGcore_AA_RTGcore_AA] (site GGGAGCCCTCA) (LTG core: AA, RTG core: AA) | 0.427
GGGAGCCCATGGGTTCTAACCTGTTGCTGAG [GGGAGCCCTCA_LTGcore_CA_RTGcore_CT] (site GGGAGCCCTCA) (LTG core: CA, RTG core: CT) | 1.06
GGGAGCCCTTGGGTTCTAACCTGTTGCTGAA [GGGAGCCCTCA_LTGcore_CT_RTGcore_TT] (site GGGAGCCCTCA) (LTG core: CT, RTG core: TT) | 0.138
GGGAGCCCTTGGGTTCTAACCTGTTGCTGAT [GGGAGCCCTCA_LTGcore_CT_RTGcore_AT] (site GGGAGCCCTCA) (LTG core: CT, RTG core: AT) | 0.599
GGGAGCCCTTGGGTTCTAACCTGTTGCTGCC [GGGAGCCCTCA_LTGcore_CT_RTGcore_GG] (site GGGAGCCCTCA) (LTG core: CT, RTG core: GG) | 0.0726
GGGAGCCCTTGGGTTCTAACCTGTTGCTGTT [GGGAGCCCTCA_LTGcore_CT_RTGcore_AA] (site GGGAGCCCTCA) (LTG core: CT, RTG core: AA) | 0.272
